O=C1c2ccc(F)cc2C(=O)N1CCCCN1CC=C(c2c[nH]c3ccc(F)cc23)CC1
melting point: 197 to 199 °C

Source: patent US6391896B1, “3-Tetrahydropyridin-4-yl indoles for treatment of psychotic disorders” (Duphar International Research BV, priority 1998, dated 2002)
